Starred links: 1 amine or outer side, 2 acyl side, 3 side chain; linkers in the order of their positions; H or OH if unused. Positions of bridges follow the written chain, without caps; N, C: chain ends. Non-standard residues stand in square brackets, D forms with d. Residues, ends and D or L forms follow the SMILES beside them. *: point of attachment. X1 = CC1(C)C(/C=C/C=C/C=C2\N(CCCS(=O)(=O)O)c3ccc(S(=O)(=O)O)cc3C2(C)CCCCCC(=O)*)=[N+](CCCS(=O)(=O)[O-])c2ccc(S(=O)(=O)O)cc21; Trp(5-F) = N[C@@H](Cc1c[nH]c2ccc(F)cc12)C(=O)O; mXylylene = c1cc(C[*:1])cc(C[*:2])c1; αMeP = C[C@@]1(C(=O)O)CCCN1; Mpa = O=C(O)CCS
Tests used:
PCSK9 [1] = target: T1, PCSK9 (Homo sapiens, UniProt Q8NBP7); assay: PCSK9 Alexa FRET Plus TR-FRET assay (displacement of AlexaFluor647 tagged cyclic peptide Reagent B); format: binding; conditions: for Ki: Ki Plus, 0.5 nM biotinylated PCSK9, 960 nM AF cyclic peptide Reagent B, Ki calculated from IC50 and KD of AF peptide
T1 construct: Biotinylated PCSK9 was obtained commercially; purchased
T1 sequence (Q8NBP7 153-692): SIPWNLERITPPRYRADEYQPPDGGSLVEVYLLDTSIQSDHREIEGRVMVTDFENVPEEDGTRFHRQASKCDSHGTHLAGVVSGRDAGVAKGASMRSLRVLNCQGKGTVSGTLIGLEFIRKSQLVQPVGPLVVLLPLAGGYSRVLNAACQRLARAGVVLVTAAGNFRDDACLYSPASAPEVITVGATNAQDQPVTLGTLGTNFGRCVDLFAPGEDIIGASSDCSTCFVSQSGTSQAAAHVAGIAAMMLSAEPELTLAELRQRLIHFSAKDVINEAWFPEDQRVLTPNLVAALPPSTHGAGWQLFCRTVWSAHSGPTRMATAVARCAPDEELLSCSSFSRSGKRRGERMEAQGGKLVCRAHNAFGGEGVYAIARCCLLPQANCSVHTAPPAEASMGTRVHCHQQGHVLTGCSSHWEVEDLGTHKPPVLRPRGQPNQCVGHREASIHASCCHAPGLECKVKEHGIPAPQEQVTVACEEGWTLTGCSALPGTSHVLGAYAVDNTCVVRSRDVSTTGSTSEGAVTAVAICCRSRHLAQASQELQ
Method: (§1) The following is a description of the assays used to determine activity of compounds of the invention, and any comparator compounds reported, toward PCSK9 antagonism. Biotinylated PCSK9 was obtained commercially.
A solution containing 1 nM biotinylated PCSK9+2.5 nM Lance Streptavidin Europium (Strep-Eu) is made in 50 mM HEPES pH 7.4, 0.15 M NaCl, 5 mM CaCl2, 0.01% BSA, and 0.01% Surfactant P20. A separate solution containing 1920 nM of the AlexaFluor tagged cyclic peptide is made in the same buffer system. An Echo is used to transfer 0.075 ul of compound plus 0.675 ul of DMSO to each well of an assay plate followed by the addition of 15 ul of PCSK9+Stept-Eu and 15 ul of AF peptide. The final assay volume is 30.750 ul containing 0.5 nM PCSK9, 1.25 nM Strep-Eu, and 960 nM AF cyclic peptide. The reaction is incubated at room temperature for at least two hours prior to fluorescence measurements using an Envision Multilabel Reader. IC50 values are determined by fitting data to a sigmoidal dose-response curve using nonlinear regression. Ki is then calculated from the IC50 and the KD of AF cyclic peptide. Counts (B-counts) of the europium-labeled PCSK9 are followed to observe if compounds are adversely affecting PCSK9. A fall off of the B-counts is likely indicates a false positive of inhibition. Data from this procedure is reported as “P=‘numerical value’ (nanomolar)”
Activity data obtained by one or both of the above-described procedures is reported for selected example compounds of the invention in the following format: Example No.: A (standard TR Fret)=‘numerical value’; P (Alexa Fret plus standard TR Fret)=‘numerical value’/, note that all values reported are nanomolar.

PCSK9 [2] = target: T1, PCSK9; assay: PCSK9 Alexa FRET Ultra TR-FRET assay (displacement of AlexaFluor647 tagged cyclic peptide); format: binding; conditions: for Ki: Ki Ultra, 0.5 nM biotinylated PCSK9, 960 nM AF cyclic peptide, Ki calculated from IC50 and KD of AF peptide
Method: as §1
A solution containing 1 nM biotinylated PCSK9+2.5 nM Lance Streptavidin Europium (Strep-Eu) is made in 50 mM HEPES pH 7.4, 0.15 M NaCl, 5 mM CaCl2, 0.01% BSA, and 0.01% Surfactant P20. A separate solution containing 1920 nM of the AlexaFluor tagged cyclic peptide is made in the same buffer system. An Echo is used to transfer 0.015 ul of compound plus 0.735 ul of DMSO to each well of an assay plate followed by the addition of 15 ul of PCSK9+Stept-Eu and 15 ul of AF peptide. The final assay volume is 30.750 ul containing 0.5 nM PCSK9, 1.25 nM Strep-Eu, and 960 nM AF cyclic peptide. The reaction is incubated at room temperature for at least two hours prior to fluorescence measurements using an Envision Multilabel Reader. IC50 values are determined by fitting data to a sigmoidal dose-response curve using nonlinear regression. Ki is then calculated from the IC50 and the KD of AF cyclic peptide. Counts (B-counts) of the europium-labeled PCSK9 are followed to observe if compounds are adversely affecting PCSK9. A fall off of the B-counts is likely indicates a false positive of inhibition. Data from this procedure is reported as “Ki Ultra=‘numerical value’ (data reported is nanomolar)”

Kd (PCSK9 [1]; probe of the Alexa FRET Plus assay) [pM]	Kd (PCSK9 [2]; probe of the Alexa FRET Ultra assay) [pM]	Compound	Ki (PCSK9 [1]) [pM]	Ki (PCSK9 [2]) [pM]
–	–	COc1ccc(C[C@@H]2NC(=O)[C@H]([C@@H](C)O)NC(=O)[C@@H]3[C@@H]4CCN3C(=O)[C@@H]3Cc5cn(c6ccc(F)cc56)C/C=C/CC[C@@H](NC(=O)CCC(=O)N[C@@H](C)C(=O)N[C@H](CNC(=O)CCCCC[N+](C)(C)C)C(=O)N[C@@H](Cc5cccc(c5)CNC(=O)CO4)C(=O)N3)c3ccc(cc3)CCNC(=O)[C@]3(C)CCCN3C2=O)cc1 [Ex-47]	14.7	11.9
–	–	COc1ccc(C[C@@H]2NC(=O)[C@H]([C@@H](C)O)NC(=O)[C@@H]3C4CCN3C(=O)[C@@H]3Cc5cn(c6ccc(F)cc56)CCCCC[C@@H](NC(=O)CCC(=O)N[C@@H](C)C(=O)N[C@H](CNC(=O)CCOCCOCC[N+](C)(C)C)C(=O)N[C@@H](Cc5cccc(c5)CNC(=O)CO4)C(=O)N3)c3ccc(cc3)CCNC(=O)[C@]3(C)CCCN3C2=O)cc1 [Ex-48]	11.7	15.4
–	–	COc1ccc(C[C@@H]2NC(=O)[C@H]([C@@H](C)O)NC(=O)[C@@H]3[C@@H]4CCN3C(=O)[C@@H]3Cc5cn(c6ccc(F)cc56)CCCCOCc5cc(ccc5CNC(=O)CCC(=O)N[C@@H](C)C(=O)N[C@H](CNC(=O)CCCCC[N+](C)(C)C)C(=O)N[C@@H](Cc5cccc(c5)CNC(=O)CO4)C(=O)N3)CCNC(=O)[C@]3(C)CCCN3C2=O)cc1 [Ex-49]	7.16	4.14
–	–	COc1ccc(C[C@@H]2NC(=O)[C@H]([C@@H](C)O)NC(=O)[C@@H]3[C@@H]4CCN3C(=O)[C@@H]3Cc5cn(c6ccc(F)cc56)CCCCCCN(Cc5ccc(cc5)CCNC(=O)[C@]5(C)CCCN5C2=O)C(=O)CCC(=O)N[C@@H](C)C(=O)N[C@H](CNC(=O)CCOCCCCC[N+](C)(C)C)C(=O)N[C@@H](Cc2cccc(c2)CNC(=O)CO4)C(=O)N3)cc1 [Ex-59]	7.88	4.96
–	–	COc1ccc(C[C@@H]2NC(=O)[C@H]([C@@H](C)O)NC(=O)[C@@H]3[C@@H]4CCN3C(=O)[C@@H]3Cc5cn(c6ccc(F)cc56)CCCCCCN(Cc5ccc(cc5)CCNC(=O)[C@]5(C)CCCN5C2=O)C(=O)CCC(=O)N[C@@H](C)C(=O)N[C@H](CNC(=O)CNC(=O)CCCCC[N+](C)(C)C)C(=O)N[C@@H](Cc2cccc(c2)CNC(=O)CO4)C(=O)N3)cc1 [Ex-60]	6.51	5.31
–	–	COc1ccc(C[C@@H]2NC(=O)[C@H]([C@@H](C)O)NC(=O)[C@@H]3[C@@H]4CCN3C(=O)[C@@H]3Cc5cn(c6ccc(F)cc56)CCCCCCN(Cc5ccc(cc5)CCNC(=O)[C@]5(C)CCCN5C2=O)C(=O)CCC(=O)N[C@@H](C)C(=O)N[C@H](CNC(=O)CCCCCCCC[N+](C)(C)C)C(=O)N[C@@H](Cc2cccc(c2)CNC(=O)CO4)C(=O)N3)cc1 [Ex-61]	7.47	6.54
35000	990	COc1ccc(C[C@@H]2NC(=O)[C@H](Cc3c[nH]cn3)NC(=O)[C@H](CC(=O)O)NC(=O)[C@H](Cc3c[nH]c4ccc(F)cc34)NC(=O)[C@H](Cc3c[nH]c4ccc(F)cc34)NC(=O)[C@@H](C)NC(=O)[C@H](CCCCNC(=O)CCCCCC3(C)/C(=C/C=C/C=C/C4=[N+](CCCS(=O)(=O)[O-])c5ccc(S(=O)(=O)O)cc5C4(C)C)N(CCCS(=O)(=O)O)c4ccc(S(=O)(=O)O)cc43)NC(=O)CCSCc3cccc(c3)CSC[C@@H](C(N)=O)NC(=O)[C@]3(C)CCCN3C2=O)cc1 (some centres unmarked) [Reagent B, reference compound] ([Mpa]K(X1)[dA][Trp(5-F)][Trp(5-F)]DHY(Me)[αMeP]C-NH2; linker 1-10 via mXylylene)	–	–

— patent publication US12209145B2, “PCSK9 antagonist compounds” (Merck Sharp & Dohme LLC, priority 2018, dated 2025)
